Experiment: xn = mol fraction of the nth substance listed
Settings: 101 kPa, Liquid; for speed of sound: Sing-around technique in a fixed-path interferometer; for viscosity: Capillary tube (Ostwald / Ubbelohde) method

NCCN [ethane-1,2-diamine] + CC(C)CO
Settings | mass density [kg/m3] | speed of sound [m/s] | viscosity [mPa·s]
293.15 K, x1 = 0.0664 | 809.959 | 1236.6 | –
293.15 K, x1 = 0.0967 | 813.41 | 1250.3 | –
293.15 K, x1 = 0.1652 | 821.052 | 1280.8 | –
293.15 K, x1 = 0.2002 | 824.886 | 1296.8 | –
293.15 K, x1 = 0.2617 | 831.17 | 1324.1 | –
293.15 K, x1 = 0.3019 | 835.134 | 1342.3 | –
293.15 K, x1 = 0.4093 | 844.755 | 1389.6 | –
293.15 K, x1 = 0.5014 | 852.563 | 1431 | –
293.15 K, x1 = 0.6011 | 861.131 | 1478 | –
293.15 K, x1 = 0.6911 | 868.086 | 1520.5 | –
293.15 K, x1 = 0.7887 | 876.941 | 1571.6 | –
293.15 K, x1 = 0.8471 | 882.565 | 1603.7 | –
293.15 K, x1 = 0.8998 | 887.801 | 1634.3 | –
293.15 K, x1 = 0.9391 | 892.054 | 1658.5 | –
298.15 K, x1 = 0.0664 | 806.006 | 1219.4 | 3.231
298.15 K, x1 = 0.0967 | 809.413 | 1233.1 | 3.209
298.15 K, x1 = 0.1652 | 816.964 | 1263.3 | 3.134
298.15 K, x1 = 0.2002 | 820.75 | 1279.2 | 3.094
298.15 K, x1 = 0.2617 | 826.969 | 1306.3 | 3.006
298.15 K, x1 = 0.3019 | 830.903 | 1324.5 | 2.94
298.15 K, x1 = 0.4093 | 840.455 | 1371.4 | 2.724
298.15 K, x1 = 0.5014 | 848.217 | 1412.2 | 2.495
298.15 K, x1 = 0.6011 | 856.736 | 1458.7 | 2.216
298.15 K, x1 = 0.6911 | 863.637 | 1500.6 | 1.958
298.15 K, x1 = 0.7887 | 872.42 | 1550.9 | 1.716
298.15 K, x1 = 0.8471 | 878.003 | 1582.6 | 1.591
298.15 K, x1 = 0.8998 | 883.197 | 1612.7 | 1.501
298.15 K, x1 = 0.9391 | 887.411 | 1636.5 | 1.456
303.15 K, x1 = 0.0664 | 802.02 | 1202.4 | 2.711
303.15 K, x1 = 0.0967 | 805.385 | 1216 | 2.699
303.15 K, x1 = 0.1652 | 812.854 | 1246.1 | 2.648
303.15 K, x1 = 0.2002 | 816.592 | 1261.8 | 2.625
303.15 K, x1 = 0.2617 | 822.547 | 1288.6 | 2.553
303.15 K, x1 = 0.3019 | 826.644 | 1306.7 | 2.502
303.15 K, x1 = 0.4093 | 836.134 | 1353.1 | 2.325
303.15 K, x1 = 0.5014 | 843.853 | 1393.5 | 2.135
303.15 K, x1 = 0.6011 | 852.325 | 1439.5 | 1.895
303.15 K, x1 = 0.6911 | 859.166 | 1480.6 | 1.698
303.15 K, x1 = 0.7887 | 867.883 | 1530.2 | 1.502
303.15 K, x1 = 0.8471 | 873.42 | 1561.5 | 1.404
303.15 K, x1 = 0.8998 | 878.575 | 1591.2 | 1.335
303.15 K, x1 = 0.9391 | 882.76 | 1614.6 | 1.294
308.15 K, x1 = 0.0664 | 797.994 | 1185.4 | 2.18
308.15 K, x1 = 0.0967 | 801.327 | 1198.8 | 2.169
308.15 K, x1 = 0.1652 | 808.708 | 1228.7 | 2.147
308.15 K, x1 = 0.2002 | 812.41 | 1244.4 | 2.135
308.15 K, x1 = 0.2617 | 818.501 | 1271.1 | 2.097
308.15 K, x1 = 0.3019 | 822.366 | 1288.9 | 2.059
308.15 K, x1 = 0.4093 | 831.795 | 1334.9 | 1.924
308.15 K, x1 = 0.5014 | 839.474 | 1374.9 | 1.776
308.15 K, x1 = 0.6011 | 847.896 | 1420.2 | 1.583
308.15 K, x1 = 0.6911 | 854.681 | 1460.9 | 1.446
308.15 K, x1 = 0.7887 | 863.336 | 1509.8 | 1.314
308.15 K, x1 = 0.8471 | 868.829 | 1540.7 | 1.248
308.15 K, x1 = 0.8998 | 873.941 | 1570.1 | 1.191
308.15 K, x1 = 0.9391 | 878.094 | 1593.1 | 1.154
313.15 K, x1 = 0.0664 | 793.931 | 1168.4 | –
313.15 K, x1 = 0.0967 | 797.223 | 1181.6 | –
313.15 K, x1 = 0.1652 | 804.528 | 1211.5 | –
313.15 K, x1 = 0.2002 | 808.187 | 1227.1 | –
313.15 K, x1 = 0.2617 | 814.225 | 1253.6 | –
313.15 K, x1 = 0.3019 | 818.055 | 1271.2 | –
313.15 K, x1 = 0.4093 | 827.425 | 1316.9 | –
313.15 K, x1 = 0.5014 | 835.064 | 1356.4 | –
313.15 K, x1 = 0.6011 | 843.444 | 1400.9 | –
313.15 K, x1 = 0.6911 | 850.175 | 1441.2 | –
313.15 K, x1 = 0.7887 | 858.761 | 1489.6 | –
313.15 K, x1 = 0.8471 | 864.211 | 1520.1 | –
313.15 K, x1 = 0.8998 | 869.284 | 1548.9 | –
313.15 K, x1 = 0.9391 | 873.407 | 1571.7 | –

NCCN [ethane-1,2-diamine] + CC(C)O
Settings | mass density [kg/m3] | speed of sound [m/s] | viscosity [mPa·s]
293.15 K, x1 = 0.0557 | 793.696 | 1187.2 | –
293.15 K, x1 = 0.1036 | 800.705 | 1213.8 | –
293.15 K, x1 = 0.156 | 807.902 | 1241.5 | –
293.15 K, x1 = 0.2011 | 813.922 | 1265.8 | –
293.15 K, x1 = 0.2548 | 820.862 | 1295.1 | –
293.15 K, x1 = 0.3018 | 826.514 | 1320.2 | –
293.15 K, x1 = 0.3892 | 836.546 | 1366.4 | –
293.15 K, x1 = 0.5109 | 849.474 | 1430.5 | –
293.15 K, x1 = 0.605 | 858.745 | 1478.9 | –
293.15 K, x1 = 0.6988 | 868.4 | 1530.6 | –
293.15 K, x1 = 0.7969 | 878.278 | 1584.3 | –
293.15 K, x1 = 0.8369 | 881.835 | 1605.3 | –
293.15 K, x1 = 0.8931 | 887.269 | 1635.6 | –
293.15 K, x1 = 0.9409 | 892.34 | 1662.9 | –
298.15 K, x1 = 0.0557 | 789.425 | 1169.4 | 2.034
298.15 K, x1 = 0.1036 | 796.388 | 1195.9 | 2.017
298.15 K, x1 = 0.156 | 803.523 | 1223.4 | 1.997
298.15 K, x1 = 0.2011 | 809.506 | 1247.6 | 1.978
298.15 K, x1 = 0.2548 | 816.397 | 1276.6 | 1.962
298.15 K, x1 = 0.3018 | 822.019 | 1301.6 | 1.936
298.15 K, x1 = 0.3892 | 832.023 | 1347.5 | 1.886
298.15 K, x1 = 0.5109 | 844.925 | 1410.9 | 1.796
298.15 K, x1 = 0.605 | 854.173 | 1458.9 | 1.725
298.15 K, x1 = 0.6988 | 863.796 | 1510 | 1.637
298.15 K, x1 = 0.7969 | 873.662 | 1563.2 | 1.543
298.15 K, x1 = 0.8369 | 877.194 | 1583.7 | 1.511
298.15 K, x1 = 0.8931 | 882.613 | 1613.9 | 1.469
298.15 K, x1 = 0.9409 | 887.669 | 1640.7 | 1.438
303.15 K, x1 = 0.0557 | 785.1 | 1151.7 | 1.761
303.15 K, x1 = 0.1036 | 792.016 | 1178 | 1.746
303.15 K, x1 = 0.156 | 799.108 | 1205.3 | 1.733
303.15 K, x1 = 0.2011 | 805.044 | 1229.4 | 1.718
303.15 K, x1 = 0.2548 | 811.904 | 1258.2 | 1.698
303.15 K, x1 = 0.3018 | 817.496 | 1283 | 1.675
303.15 K, x1 = 0.3892 | 827.475 | 1328.5 | 1.629
303.15 K, x1 = 0.5109 | 840.354 | 1391.5 | 1.558
303.15 K, x1 = 0.605 | 849.588 | 1439 | 1.496
303.15 K, x1 = 0.6988 | 859.186 | 1489.5 | 1.429
303.15 K, x1 = 0.7969 | 869.028 | 1542.1 | 1.357
303.15 K, x1 = 0.8369 | 872.546 | 1562.4 | 1.331
303.15 K, x1 = 0.8931 | 877.945 | 1592.1 | 1.298
303.15 K, x1 = 0.9409 | 882.985 | 1618.7 | 1.271
308.15 K, x1 = 0.0557 | 780.72 | 1134 | 1.555
308.15 K, x1 = 0.1036 | 787.599 | 1160.1 | 1.543
308.15 K, x1 = 0.156 | 794.649 | 1187.3 | 1.528
308.15 K, x1 = 0.2011 | 800.552 | 1211.2 | 1.516
308.15 K, x1 = 0.2548 | 807.374 | 1239.8 | 1.497
308.15 K, x1 = 0.3018 | 812.943 | 1264.5 | 1.48
308.15 K, x1 = 0.3892 | 822.898 | 1309.7 | 1.44
308.15 K, x1 = 0.5109 | 835.76 | 1372.1 | 1.375
308.15 K, x1 = 0.605 | 844.983 | 1419.1 | 1.322
308.15 K, x1 = 0.6988 | 854.563 | 1469.1 | 1.266
308.15 K, x1 = 0.7969 | 864.38 | 1521.1 | 1.205
308.15 K, x1 = 0.8369 | 867.885 | 1541.2 | 1.183
308.15 K, x1 = 0.8931 | 873.264 | 1570.6 | 1.152
308.15 K, x1 = 0.9409 | 878.288 | 1596.8 | 1.129
313.15 K, x1 = 0.0557 | 776.266 | 1116.4 | –
313.15 K, x1 = 0.1036 | 783.114 | 1142.2 | –
313.15 K, x1 = 0.156 | 790.129 | 1169.4 | –
313.15 K, x1 = 0.2011 | 796.005 | 1193.2 | –
313.15 K, x1 = 0.2548 | 802.798 | 1221.6 | –
313.15 K, x1 = 0.3018 | 808.346 | 1246.1 | –
313.15 K, x1 = 0.3892 | 818.281 | 1291.2 | –
313.15 K, x1 = 0.5109 | 831.131 | 1353.4 | –
313.15 K, x1 = 0.605 | 840.349 | 1399.4 | –
313.15 K, x1 = 0.6988 | 849.909 | 1449.1 | –
313.15 K, x1 = 0.7969 | 859.706 | 1500.5 | –
313.15 K, x1 = 0.8369 | 863.196 | 1520.3 | –
313.15 K, x1 = 0.8931 | 868.56 | 1549.4 | –
313.15 K, x1 = 0.9409 | 873.569 | 1575.4 | –

Source: the NIST ThermoML archive (doi:10.1021/je1012857)
